# In the kinase profiling compilation of Christmann-Franck et al. (2016):
# What was measured:
# Assay in all cases: radiometric filter-binding kinase assay
# MAPKAPK5 (human) = MAPKAPK5 (human) (UniProt Q8IW41)
# EPHA2 (human) = EPHA2 (human) (UniProt P29317)
# MINK1 (human) = MINK1 (human) (UniProt Q8N4C8)
# IRAK4 (human) = IRAK4 (human) (UniProt Q9NWZ3)
# CSK (human) = CSK (human) (UniProt P41240)
# MAP3K1 (human) = MAP3K1 (human) (UniProt Q13233)
# CSNK1D (human) = CSNK1D (human) (UniProt P48730)
# PRKCZ (human) = PRKCZ (human) (UniProt Q05513)
# MAP3K7 TAB1 (human) = MAP3K7 TAB1 (human) (UniProt Q15750+O43318)
# FGFR1 (human) = FGFR1 (human) (UniProt P11362)
# IGF1R (human) = IGF1R (human) (UniProt P08069)
# SRC (human) = SRC (human) (UniProt P12931)
# Chain of SRC (human) (P12931 whole entry, looked up): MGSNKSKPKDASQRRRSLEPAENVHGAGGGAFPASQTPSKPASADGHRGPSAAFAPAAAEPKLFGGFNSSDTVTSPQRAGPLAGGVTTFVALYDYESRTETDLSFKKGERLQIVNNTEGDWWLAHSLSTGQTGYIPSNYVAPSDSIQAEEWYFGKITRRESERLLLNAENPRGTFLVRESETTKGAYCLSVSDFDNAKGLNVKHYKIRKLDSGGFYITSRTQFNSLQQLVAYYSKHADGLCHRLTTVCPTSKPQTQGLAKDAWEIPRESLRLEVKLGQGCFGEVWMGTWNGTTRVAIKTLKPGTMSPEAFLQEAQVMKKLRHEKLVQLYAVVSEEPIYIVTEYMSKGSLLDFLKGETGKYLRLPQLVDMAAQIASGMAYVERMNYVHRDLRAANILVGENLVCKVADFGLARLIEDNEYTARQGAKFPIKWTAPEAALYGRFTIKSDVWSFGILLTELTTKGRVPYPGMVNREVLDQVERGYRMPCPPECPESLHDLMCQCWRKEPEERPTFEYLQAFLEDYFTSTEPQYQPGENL
# CAMKK2 (human) = CAMKK2 (human) (UniProt Q96RR4)
# Chain of CAMKK2 (human) (Q96RR4 whole entry, looked up): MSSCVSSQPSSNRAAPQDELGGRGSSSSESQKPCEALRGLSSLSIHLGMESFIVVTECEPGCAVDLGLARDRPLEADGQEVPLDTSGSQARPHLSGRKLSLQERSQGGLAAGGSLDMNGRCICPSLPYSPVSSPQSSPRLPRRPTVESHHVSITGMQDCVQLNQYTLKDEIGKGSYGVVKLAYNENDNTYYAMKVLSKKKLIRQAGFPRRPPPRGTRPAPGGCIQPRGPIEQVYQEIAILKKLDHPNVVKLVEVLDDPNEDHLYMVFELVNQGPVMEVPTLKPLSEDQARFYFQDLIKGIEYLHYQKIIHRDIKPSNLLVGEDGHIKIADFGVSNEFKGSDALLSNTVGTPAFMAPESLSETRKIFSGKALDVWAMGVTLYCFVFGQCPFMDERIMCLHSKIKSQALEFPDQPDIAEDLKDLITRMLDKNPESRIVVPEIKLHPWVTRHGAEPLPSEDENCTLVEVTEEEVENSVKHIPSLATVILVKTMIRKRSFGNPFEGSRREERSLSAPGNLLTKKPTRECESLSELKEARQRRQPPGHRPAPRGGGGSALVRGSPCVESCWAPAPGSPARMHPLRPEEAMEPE
# NTRK1 (human) = NTRK1 (human) (UniProt P04629)
# HIPK3 (human) = HIPK3 (human) (UniProt Q9H422)
# ROCK2 (rat) = settings: accession and sequence are those of the human protein
# MARK1 (human) = MARK1 (human) (UniProt Q9P0L2)
# FLT1 (human) = FLT1 (human) (UniProt P17948)
# JAK2 JH1 JH2 (human) = JAK2 JH1 JH2 (human) (UniProt O60674)
# MAPK11 (human) = MAPK11 (human) (UniProt Q15759)
# RPS6KA3 KD1 KD2 (human) = RPS6KA3 KD1 KD2 (human) (UniProt P51812)
# Chain of RPS6KA3 KD1 KD2 (human) (P51812 whole entry, looked up): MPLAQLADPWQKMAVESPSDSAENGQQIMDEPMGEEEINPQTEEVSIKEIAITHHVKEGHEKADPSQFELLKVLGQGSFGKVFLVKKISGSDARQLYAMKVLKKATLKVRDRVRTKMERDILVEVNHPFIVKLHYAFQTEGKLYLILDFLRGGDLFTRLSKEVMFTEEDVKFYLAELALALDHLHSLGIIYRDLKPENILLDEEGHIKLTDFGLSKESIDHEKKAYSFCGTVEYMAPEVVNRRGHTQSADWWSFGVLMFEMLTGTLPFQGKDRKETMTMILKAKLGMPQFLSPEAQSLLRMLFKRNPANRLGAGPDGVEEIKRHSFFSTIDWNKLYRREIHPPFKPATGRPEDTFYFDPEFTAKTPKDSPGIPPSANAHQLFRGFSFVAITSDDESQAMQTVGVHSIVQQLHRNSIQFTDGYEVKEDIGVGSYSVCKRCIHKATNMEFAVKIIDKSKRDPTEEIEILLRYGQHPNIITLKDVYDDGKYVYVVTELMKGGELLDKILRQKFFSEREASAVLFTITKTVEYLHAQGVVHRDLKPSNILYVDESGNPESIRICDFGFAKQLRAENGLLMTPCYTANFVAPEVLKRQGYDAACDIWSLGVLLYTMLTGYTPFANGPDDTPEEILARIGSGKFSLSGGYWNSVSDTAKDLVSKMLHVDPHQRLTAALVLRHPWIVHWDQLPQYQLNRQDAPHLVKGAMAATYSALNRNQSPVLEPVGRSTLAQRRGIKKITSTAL
# MAPK15 (human) = MAPK15 (human) (UniProt Q8TD08)
# [1] = system: AKT2 (human), P31751 [S474D]
# GSK3B (human) = GSK3B (human) (UniProt P49841)
# MELK (human) = MELK (human) (UniProt Q14680)
# Chain of MELK (human) (Q14680 whole entry, looked up): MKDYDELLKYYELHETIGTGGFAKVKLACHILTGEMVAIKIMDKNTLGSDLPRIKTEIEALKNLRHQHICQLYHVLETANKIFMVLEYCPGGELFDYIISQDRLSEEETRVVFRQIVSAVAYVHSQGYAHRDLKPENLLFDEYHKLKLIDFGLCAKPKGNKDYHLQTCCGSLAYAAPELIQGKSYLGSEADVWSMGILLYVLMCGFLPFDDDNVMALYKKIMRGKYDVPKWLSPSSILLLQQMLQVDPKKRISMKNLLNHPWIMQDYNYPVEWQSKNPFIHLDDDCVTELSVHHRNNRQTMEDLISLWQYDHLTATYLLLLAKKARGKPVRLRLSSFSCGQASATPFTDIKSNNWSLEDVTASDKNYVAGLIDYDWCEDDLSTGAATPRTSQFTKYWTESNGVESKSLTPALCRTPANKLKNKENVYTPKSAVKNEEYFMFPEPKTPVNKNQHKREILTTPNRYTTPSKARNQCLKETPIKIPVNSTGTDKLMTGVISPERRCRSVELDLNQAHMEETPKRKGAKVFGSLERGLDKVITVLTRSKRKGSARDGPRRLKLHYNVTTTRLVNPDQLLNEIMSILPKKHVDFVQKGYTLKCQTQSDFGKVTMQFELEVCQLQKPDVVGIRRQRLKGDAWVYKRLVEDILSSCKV
# INSR (human) = INSR (human) (UniProt P06213)
# Chain of INSR (human) (P06213 whole entry, looked up): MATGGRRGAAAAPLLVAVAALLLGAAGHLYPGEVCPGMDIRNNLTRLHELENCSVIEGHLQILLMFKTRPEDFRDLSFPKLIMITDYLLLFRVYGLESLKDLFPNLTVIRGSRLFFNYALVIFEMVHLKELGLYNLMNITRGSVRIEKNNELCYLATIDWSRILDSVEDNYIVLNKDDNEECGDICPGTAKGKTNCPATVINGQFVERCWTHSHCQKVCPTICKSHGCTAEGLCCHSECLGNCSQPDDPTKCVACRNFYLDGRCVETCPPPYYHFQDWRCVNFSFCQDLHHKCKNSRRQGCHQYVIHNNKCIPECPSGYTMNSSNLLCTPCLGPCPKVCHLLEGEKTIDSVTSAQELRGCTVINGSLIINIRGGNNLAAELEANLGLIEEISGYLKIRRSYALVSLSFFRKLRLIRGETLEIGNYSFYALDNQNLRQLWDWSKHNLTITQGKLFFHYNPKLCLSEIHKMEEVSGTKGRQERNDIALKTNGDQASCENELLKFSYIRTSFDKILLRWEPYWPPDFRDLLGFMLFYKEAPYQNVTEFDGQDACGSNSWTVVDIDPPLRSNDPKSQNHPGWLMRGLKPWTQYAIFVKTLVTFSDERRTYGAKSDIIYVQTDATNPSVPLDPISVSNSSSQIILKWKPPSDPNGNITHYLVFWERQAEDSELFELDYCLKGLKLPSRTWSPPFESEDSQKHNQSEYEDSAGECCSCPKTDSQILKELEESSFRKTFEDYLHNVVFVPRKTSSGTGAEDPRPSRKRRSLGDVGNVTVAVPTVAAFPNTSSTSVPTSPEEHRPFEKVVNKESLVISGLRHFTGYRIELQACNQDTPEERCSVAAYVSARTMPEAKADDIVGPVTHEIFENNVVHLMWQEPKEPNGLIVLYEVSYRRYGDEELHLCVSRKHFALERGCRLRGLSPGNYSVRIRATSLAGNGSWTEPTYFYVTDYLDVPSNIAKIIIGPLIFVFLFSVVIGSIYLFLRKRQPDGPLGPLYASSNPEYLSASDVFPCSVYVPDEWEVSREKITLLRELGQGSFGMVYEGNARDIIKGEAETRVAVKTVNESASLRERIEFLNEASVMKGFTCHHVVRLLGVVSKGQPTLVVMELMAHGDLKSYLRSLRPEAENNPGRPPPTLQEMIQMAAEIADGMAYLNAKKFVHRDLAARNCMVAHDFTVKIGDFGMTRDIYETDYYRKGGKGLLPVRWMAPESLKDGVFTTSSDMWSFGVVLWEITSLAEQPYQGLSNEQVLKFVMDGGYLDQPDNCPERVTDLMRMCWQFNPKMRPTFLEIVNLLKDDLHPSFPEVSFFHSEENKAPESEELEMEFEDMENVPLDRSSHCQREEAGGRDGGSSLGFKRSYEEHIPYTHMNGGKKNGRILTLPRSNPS
# HIPK1 (human) = HIPK1 (human) (UniProt Q86Z02)
# LCK (mouse) = settings: accession and sequence are those of the human protein
# MAPK14 (human) = MAPK14 (human) (UniProt Q16539)
# RIPK2 (human) = RIPK2 (human) (UniProt O43353)
# [2] = target: STK11 CAB39 STRADA (human) (UniProt Q9Y376+Q7RTN6+Q15831)
# BRSK1 (human) = BRSK1 (human) (UniProt Q8TDC3)
# TAOK1 (human) = TAOK1 (human) (UniProt Q7L7X3)
# DYRK3 (human) = DYRK3 (human) (UniProt O43781)
# Chain of DYRK3 (human) (O43781 whole entry, looked up): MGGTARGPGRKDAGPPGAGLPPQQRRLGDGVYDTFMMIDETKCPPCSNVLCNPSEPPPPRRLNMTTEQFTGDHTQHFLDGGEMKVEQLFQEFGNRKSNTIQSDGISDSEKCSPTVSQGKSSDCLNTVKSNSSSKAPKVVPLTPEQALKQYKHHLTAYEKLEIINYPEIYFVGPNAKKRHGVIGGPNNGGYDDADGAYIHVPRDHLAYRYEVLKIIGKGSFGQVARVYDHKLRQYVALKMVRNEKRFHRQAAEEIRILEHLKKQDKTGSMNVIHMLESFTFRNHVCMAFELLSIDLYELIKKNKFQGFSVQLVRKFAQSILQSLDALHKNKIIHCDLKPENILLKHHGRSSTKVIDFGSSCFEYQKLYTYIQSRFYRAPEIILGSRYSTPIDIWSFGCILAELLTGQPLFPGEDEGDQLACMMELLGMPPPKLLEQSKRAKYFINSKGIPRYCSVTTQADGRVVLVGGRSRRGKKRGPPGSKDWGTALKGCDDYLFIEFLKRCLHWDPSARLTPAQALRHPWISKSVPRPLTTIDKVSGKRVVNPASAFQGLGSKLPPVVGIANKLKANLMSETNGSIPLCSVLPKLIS
# CLK2 (human) = CLK2 (human) (UniProt P49760)
# Chain of CSK (human) (P41240 whole entry, looked up): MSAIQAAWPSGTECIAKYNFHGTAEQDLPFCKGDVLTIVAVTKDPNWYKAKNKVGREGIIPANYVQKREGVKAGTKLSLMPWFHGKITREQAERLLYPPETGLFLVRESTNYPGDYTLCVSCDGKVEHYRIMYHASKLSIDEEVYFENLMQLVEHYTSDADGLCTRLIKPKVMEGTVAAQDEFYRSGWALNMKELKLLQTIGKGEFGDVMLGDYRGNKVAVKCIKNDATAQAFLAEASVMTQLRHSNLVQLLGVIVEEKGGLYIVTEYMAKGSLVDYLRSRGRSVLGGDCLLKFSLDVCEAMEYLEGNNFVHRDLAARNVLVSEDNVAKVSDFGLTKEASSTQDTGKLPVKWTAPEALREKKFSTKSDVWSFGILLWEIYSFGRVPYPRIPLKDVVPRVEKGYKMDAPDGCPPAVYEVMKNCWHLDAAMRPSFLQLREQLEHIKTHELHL
structure (smiles),measurement,setting,value
NC1(c2ccc(-c3nc4ccn5c(=O)[nH]nc5c4cc3-c3ccccc3)cc2)CCC1,residual activity,MAPKAPK5 (human); compound 0.1 µM,81%
same,residual activity,MAPKAPK5 (human); compound 10.0 µM,102%
same,residual activity,EPHA2 (human); compound 0.1 µM,86%
same,residual activity,EPHA2 (human); compound 1.0 µM,95%
same,residual activity,EPHA2 (human); compound 10.0 µM,87%
same,residual activity,MINK1 (human); compound 0.1 µM,106%
same,residual activity,MINK1 (human); compound 1.0 µM,86%
same,residual activity,MINK1 (human); compound 10.0 µM,69%
same,residual activity,IRAK4 (human); compound 0.1 µM,106%
same,residual activity,IRAK4 (human); compound 1.0 µM,92%
same,residual activity,IRAK4 (human); compound 10.0 µM,99%
same,residual activity,CSK (human); compound 0.1 µM,92%
same,residual activity,CSK (human); compound 1.0 µM,91%
same,residual activity,CSK (human); compound 10.0 µM,85%
same,residual activity,MAP3K1 (human); compound 0.1 µM,114%
same,residual activity,MAP3K1 (human); compound 1.0 µM,101%
same,residual activity,MAP3K1 (human); compound 10.0 µM,83%
same,residual activity,CSNK1D (human); compound 0.1 µM,119%
same,residual activity,CSNK1D (human); compound 1.0 µM,100%
same,residual activity,CSNK1D (human); compound 10.0 µM,91%
same,residual activity,PRKCZ (human); compound 0.1 µM,97%
same,residual activity,PRKCZ (human); compound 1.0 µM,105%
same,residual activity,PRKCZ (human); compound 10.0 µM,97%
same,residual activity,MAP3K7 TAB1 (human); compound 0.1 µM,81%
same,residual activity,MAP3K7 TAB1 (human); compound 1.0 µM,107%
same,residual activity,MAP3K7 TAB1 (human); compound 10.0 µM,49%
same,residual activity,FGFR1 (human); compound 0.1 µM,100%
same,residual activity,FGFR1 (human); compound 1.0 µM,95%
same,residual activity,FGFR1 (human); compound 10.0 µM,70%
same,residual activity,IGF1R (human); compound 0.1 µM,116%
same,residual activity,IGF1R (human); compound 1.0 µM,85%
same,residual activity,IGF1R (human); compound 10.0 µM,55%
same,residual activity,SRC (human); compound 0.1 µM,101%
same,residual activity,SRC (human); compound 1.0 µM,89%
same,residual activity,SRC (human); compound 10.0 µM,105%
same,residual activity,CAMKK2 (human); compound 0.1 µM,92%
same,residual activity,CAMKK2 (human); compound 1.0 µM,99%
same,residual activity,CAMKK2 (human); compound 10.0 µM,84%
same,residual activity,NTRK1 (human); compound 0.1 µM,107%
same,residual activity,NTRK1 (human); compound 1.0 µM,90%
same,residual activity,NTRK1 (human); compound 10.0 µM,87%
same,residual activity,HIPK3 (human); compound 0.1 µM,117%
same,residual activity,HIPK3 (human); compound 1.0 µM,100%
same,residual activity,HIPK3 (human); compound 10.0 µM,100%
same,residual activity,ROCK2 (rat); compound 0.1 µM,85%
same,residual activity,ROCK2 (rat); compound 1.0 µM,87%
same,residual activity,ROCK2 (rat); compound 10.0 µM,91%
same,residual activity,MARK1 (human); compound 0.1 µM,113%
same,residual activity,MARK1 (human); compound 1.0 µM,88%
same,residual activity,MARK1 (human); compound 10.0 µM,98%
same,residual activity,FLT1 (human); compound 0.1 µM,88%
same,residual activity,FLT1 (human); compound 1.0 µM,81%
same,residual activity,FLT1 (human); compound 10.0 µM,53%
same,residual activity,JAK2 JH1 JH2 (human); compound 1.0 µM,84%
same,residual activity,JAK2 JH1 JH2 (human); compound 10.0 µM,94%
same,residual activity,MAPK11 (human); compound 0.1 µM,99%
same,residual activity,MAPK11 (human); compound 1.0 µM,77%
same,residual activity,MAPK11 (human); compound 10.0 µM,76%
same,residual activity,RPS6KA3 KD1 KD2 (human); compound 0.1 µM,91%
same,residual activity,RPS6KA3 KD1 KD2 (human); compound 1.0 µM,90%
same,residual activity,RPS6KA3 KD1 KD2 (human); compound 10.0 µM,81%
same,residual activity,MAPK15 (human); compound 0.1 µM,106%
same,residual activity,MAPK15 (human); compound 1.0 µM,89%
same,residual activity,MAPK15 (human); compound 10.0 µM,93%
same,residual activity,[1]; compound 0.1 µM,69%
same,residual activity,[1]; compound 1.0 µM,86%
same,residual activity,[1]; compound 10.0 µM,68%
same,residual activity,GSK3B (human); compound 0.1 µM,104%
same,residual activity,GSK3B (human); compound 1.0 µM,85%
same,residual activity,GSK3B (human); compound 10.0 µM,72%
same,residual activity,MELK (human); compound 0.1 µM,80%
same,residual activity,MELK (human); compound 1.0 µM,75%
same,residual activity,MELK (human); compound 10.0 µM,80%
same,residual activity,INSR (human); compound 1.0 µM,79%
same,residual activity,INSR (human); compound 10.0 µM,83%
same,residual activity,HIPK1 (human); compound 0.1 µM,91%
same,residual activity,HIPK1 (human); compound 1.0 µM,85%
same,residual activity,HIPK1 (human); compound 10.0 µM,97%
same,residual activity,LCK (mouse); compound 0.1 µM,106%
same,residual activity,LCK (mouse); compound 1.0 µM,112%
same,residual activity,LCK (mouse); compound 10.0 µM,80%
same,residual activity,MAPK14 (human); compound 0.1 µM,110%
same,residual activity,MAPK14 (human); compound 1.0 µM,97%
same,residual activity,MAPK14 (human); compound 10.0 µM,101%
same,residual activity,RIPK2 (human); compound 0.1 µM,101%
same,residual activity,RIPK2 (human); compound 1.0 µM,84%
same,residual activity,RIPK2 (human); compound 10.0 µM,38%
same,residual activity,[2]; compound 0.1 µM,102%
same,residual activity,[2]; compound 1.0 µM,85%
same,residual activity,[2]; compound 10.0 µM,86%
same,residual activity,BRSK1 (human); compound 0.1 µM,115%
same,residual activity,BRSK1 (human); compound 1.0 µM,112%
same,residual activity,BRSK1 (human); compound 10.0 µM,87%
same,residual activity,TAOK1 (human); compound 0.1 µM,104%
same,residual activity,TAOK1 (human); compound 1.0 µM,90%
same,residual activity,TAOK1 (human); compound 10.0 µM,85%
same,residual activity,DYRK3 (human); compound 0.1 µM,98%
same,residual activity,DYRK3 (human); compound 1.0 µM,89%
same,residual activity,DYRK3 (human); compound 10.0 µM,81%
same,residual activity,CLK2 (human); compound 0.1 µM,103%
same,residual activity,CLK2 (human); compound 1.0 µM,81%
same,residual activity,CLK2 (human); compound 10.0 µM,67%
COc1cc(C(=O)N2CCOCC2)c(F)cc1Nc1ncc(C(F)(F)F)c(NC2CC2)n1,residual activity,MAPKAPK5 (human); compound 1.0 µM,77%
same,residual activity,MAPKAPK5 (human); compound 10.0 µM,49%
same,residual activity,EPHA2 (human); compound 1.0 µM,81%
same,residual activity,EPHA2 (human); compound 10.0 µM,93%
same,residual activity,MINK1 (human); compound 1.0 µM,124%
same,residual activity,MINK1 (human); compound 10.0 µM,109%
same,residual activity,IRAK4 (human); compound 1.0 µM,90%
same,residual activity,IRAK4 (human); compound 10.0 µM,93%
same,residual activity,CSK (human); compound 1.0 µM,102%
same,residual activity,CSK (human); compound 10.0 µM,101%
same,residual activity,MAP3K1 (human); compound 1.0 µM,90%
same,residual activity,MAP3K1 (human); compound 10.0 µM,109%
same,residual activity,CSNK1D (human); compound 1.0 µM,95%
same,residual activity,CSNK1D (human); compound 10.0 µM,67%
same,residual activity,PRKCZ (human); compound 1.0 µM,101%
same,residual activity,PRKCZ (human); compound 10.0 µM,86%
same,residual activity,MAP3K7 TAB1 (human); compound 1.0 µM,11%
same,residual activity,MAP3K7 TAB1 (human); compound 10.0 µM,2%
same,residual activity,FGFR1 (human); compound 1.0 µM,97%
same,residual activity,FGFR1 (human); compound 10.0 µM,104%
same,residual activity,IGF1R (human); compound 1.0 µM,35%
same,residual activity,IGF1R (human); compound 10.0 µM,8%
same,residual activity,SRC (human); compound 1.0 µM,107%
same,residual activity,SRC (human); compound 10.0 µM,81%
same,residual activity,CAMKK2 (human); compound 1.0 µM,40%
same,residual activity,CAMKK2 (human); compound 10.0 µM,10%
same,residual activity,NTRK1 (human); compound 1.0 µM,70%
same,residual activity,NTRK1 (human); compound 10.0 µM,54%
same,residual activity,HIPK3 (human); compound 1.0 µM,101%
same,residual activity,ROCK2 (rat); compound 1.0 µM,95%
same,residual activity,ROCK2 (rat); compound 10.0 µM,78%
same,residual activity,MARK1 (human); compound 1.0 µM,88%
same,residual activity,MARK1 (human); compound 10.0 µM,85%
same,residual activity,FLT1 (human); compound 1.0 µM,55%
same,residual activity,FLT1 (human); compound 10.0 µM,14%
same,residual activity,JAK2 JH1 JH2 (human); compound 1.0 µM,79%
same,residual activity,JAK2 JH1 JH2 (human); compound 10.0 µM,52%
same,residual activity,MAPK11 (human); compound 1.0 µM,98%
same,residual activity,MAPK11 (human); compound 10.0 µM,101%
same,residual activity,RPS6KA3 KD1 KD2 (human); compound 1.0 µM,77%
same,residual activity,RPS6KA3 KD1 KD2 (human); compound 10.0 µM,25%
same,residual activity,MAPK15 (human); compound 1.0 µM,81%
same,residual activity,MAPK15 (human); compound 10.0 µM,28%
same,residual activity,[1]; compound 1.0 µM,99%
same,residual activity,[1]; compound 10.0 µM,98%
same,residual activity,GSK3B (human); compound 1.0 µM,73%
same,residual activity,GSK3B (human); compound 10.0 µM,43%
same,residual activity,MELK (human); compound 1.0 µM,91%
same,residual activity,MELK (human); compound 10.0 µM,39%
same,residual activity,INSR (human); compound 1.0 µM,50%
same,residual activity,INSR (human); compound 10.0 µM,3%
same,residual activity,HIPK1 (human); compound 1.0 µM,92%
same,residual activity,HIPK1 (human); compound 10.0 µM,49%
same,residual activity,LCK (mouse); compound 10.0 µM,102%
same,residual activity,MAPK14 (human); compound 1.0 µM,84%
same,residual activity,MAPK14 (human); compound 10.0 µM,119%
same,residual activity,RIPK2 (human); compound 1.0 µM,94%
same,residual activity,RIPK2 (human); compound 10.0 µM,79%
same,residual activity,[2]; compound 1.0 µM,88%
same,residual activity,[2]; compound 10.0 µM,92%
same,residual activity,BRSK1 (human); compound 1.0 µM,85%
same,residual activity,BRSK1 (human); compound 10.0 µM,69%
same,residual activity,TAOK1 (human); compound 1.0 µM,99%
same,residual activity,TAOK1 (human); compound 10.0 µM,80%
same,residual activity,DYRK3 (human); compound 1.0 µM,88%
same,residual activity,DYRK3 (human); compound 10.0 µM,51%
same,residual activity,CLK2 (human); compound 1.0 µM,36%
same,residual activity,CLK2 (human); compound 10.0 µM,5%
